In PubChem BioAssay (NCI):
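Test compounds were applied to cells in 96-well plates for 48 hours at 5 doses. TGI marks complete inhibition of growth.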

How the values were obtained:
Experiment in all cases: NCI-60 cell line screen, 48 h
[1] = tested on: 786-0 renal
[2] = tested on: A498 renal
[3] = tested on: A549 NSCLC
[4] = tested on: ACHN renal
[5] = tested on: CAKI-1 renal
[6] = tested on: CCRF-CEM leukemia
[7] = tested on: COLO 205 colon
[8] = tested on: DLD-1 colon
[9] = tested on: DMS 273 small cell lung
[10] = tested on: EKVX NSCLC
[11] = tested on: HCC-2998 colon
[12] = tested on: HCT-116 colon
[13] = tested on: HCT-15 colon
[14] = tested on: HL-60(TB) leukemia
[15] = tested on: HOP-18 NSCLC
[16] = tested on: HOP-62 NSCLC
[17] = tested on: HOP-92 NSCLC
[18] = tested on: HT29 colon
[19] = tested on: IGROV1 ovarian
[20] = tested on: K-562 leukemia
[21] = tested on: KM12 colon
[22] = tested on: KM20L2 colon
[23] = tested on: LOX IMVI melanoma
[24] = tested on: LXFL 529 NSCLC
[25] = tested on: M14 melanoma
[26] = tested on: MALME-3M melanoma
[27] = tested on: MOLT-4 leukemia
[28] = tested on: NCI-H226 lung
[29] = tested on: NCI-H23 lung
[30] = tested on: NCI-H460 lung
[31] = tested on: NCI-H522 lung
[32] = tested on: OVCAR-3 ovarian
[33] = tested on: OVCAR-4 ovarian
[34] = tested on: OVCAR-5 ovarian
[35] = tested on: OVCAR-8 ovarian
[36] = tested on: RPMI-8226 leukemia
[37] = tested on: RXF 393 renal
[38] = tested on: SF-268 CNS
[39] = tested on: SF-295 CNS
[40] = tested on: SF-539 CNS
[41] = tested on: SK-MEL-2 melanoma
[42] = tested on: SK-MEL-28 melanoma
[43] = tested on: SK-MEL-5 melanoma
[44] = tested on: SK-OV-3 ovarian
[45] = tested on: SN12C renal
[46] = tested on: SNB-19 CNS
[47] = tested on: SNB-75 CNS
[48] = tested on: SR leukemia
[49] = tested on: SW-620 colon
[50] = tested on: TK-10 renal
[51] = tested on: U251 CNS
[52] = tested on: UACC-257 melanoma
[53] = tested on: UACC-62 melanoma
[54] = tested on: UO-31 renal
[55] = tested on: XF 498 CNS
[56] = tested on: DMS 114 small cell lung
[57] = tested on: M19-MEL melanoma
[58] = tested on: SNB-78 CNS

## CC(N)Cc1ccc(Cl)cc1 (stereo unspecified)
[1]
  TGI: > 100 µM
[2]
  TGI: > 100 µM
[3]
  TGI: > 100 µM
[4]
  TGI: > 100 µM
[5]
  TGI: > 100 µM
[6]
  TGI: > 100 µM
[7]
  TGI: > 100 µM
[8]
  TGI: > 100 µM
[9]
  TGI: > 100 µM
[10]
  TGI: > 100 µM
[11]
  TGI: > 100 µM
[12]
  TGI: > 100 µM
[13]
  TGI: > 100 µM
[14]
  TGI: > 100 µM
[15]
  TGI: > 100 µM
[16]
  TGI: > 100 µM
[17]
  TGI: > 100 µM
[18]
  TGI: > 100 µM
[19]
  TGI: > 100 µM
[20]
  TGI: > 100 µM
[21]
  TGI: > 100 µM
[22]
  TGI: > 100 µM
[23]
  TGI: > 100 µM
[24]
  TGI: > 100 µM
[25]
  TGI: > 100 µM
[26]
  TGI: > 100 µM
[27]
  TGI: > 100 µM
[28]
  TGI: > 100 µM
[29]
  TGI: > 100 µM
[30]
  TGI: > 100 µM
[31]
  TGI: > 100 µM
[32]
  TGI: > 100 µM
[33]
  TGI: > 100 µM
[34]
  TGI: > 100 µM
[35]
  TGI: > 100 µM
[36]
  TGI: > 100 µM
[37]
  TGI: > 100 µM
[38]
  TGI: > 100 µM
[39]
  TGI: > 100 µM
[40]
  TGI: > 100 µM
[41]
  TGI: > 100 µM
[42]
  TGI: > 100 µM
[43]
  TGI: > 100 µM
[44]
  TGI: > 100 µM
[45]
  TGI: > 100 µM
[46]
  TGI: > 100 µM
[47]
  TGI: > 100 µM
[48]
  TGI: > 100 µM
[49]
  TGI: > 100 µM
[50]
  TGI: > 100 µM
[51]
  TGI: > 100 µM
[52]
  TGI: > 100 µM
[53]
  TGI: > 100 µM
[54]
  TGI: > 100 µM
[55]
  TGI: > 100 µM

## CO[C@H]1CC[C@]2(C)C3=CC[C@@]4(C)C(CC[C@@H]4C(C)CC[C@@H](C)C(C)C)C(=CCC2C1)O3 (stereo partly specified)
[1]
  TGI: > 25 µM
[2]
  TGI: > 25 µM
[3]
  TGI: > 25 µM
[4]
  TGI: > 25 µM
[5]
  TGI: > 25 µM
[6]
  TGI: > 25 µM
[7]
  TGI: > 25 µM
[8]
  TGI: > 25 µM
[56]
  TGI: > 25 µM
[9]
  TGI: > 25 µM
[10]
  TGI: > 25 µM
[11]
  TGI: > 25 µM
[12]
  TGI: > 25 µM
[13]
  TGI: > 25 µM
[14]
  TGI: > 25 µM
[15]
  TGI: > 25 µM
[16]
  TGI: > 25 µM
[17]
  TGI: > 25 µM
[18]
  TGI: > 25 µM
[19]
  TGI: > 25 µM
[20]
  TGI: > 25 µM
[21]
  TGI: > 25 µM
[22]
  TGI: > 25 µM
[23]
  TGI: > 25 µM
[24]
  TGI: > 25 µM
[25]
  TGI: > 25 µM
[57]
  TGI: > 25 µM
[26]
  TGI: > 25 µM
[27]
  TGI: > 25 µM
[28]
  TGI: > 25 µM
[29]
  TGI: > 7.9 µM
[30]
  TGI: > 25 µM
[31]
  TGI: > 25 µM
[32]
  TGI: > 25 µM
[33]
  TGI: > 25 µM
[34]
  TGI: > 25 µM
[35]
  TGI: > 25 µM
[36]
  TGI: > 25 µM
[37]
  TGI: > 25 µM
[38]
  TGI: > 25 µM
[39]
  TGI: > 25 µM
[40]
  TGI: > 25 µM
[41]
  TGI: > 25 µM
[42]
  TGI: > 25 µM
[43]
  TGI: > 25 µM
[44]
  TGI: > 25 µM
[45]
  TGI: > 25 µM
[46]
  TGI: > 25 µM
[47]
  TGI: > 25 µM
[58]
  TGI: > 25 µM
[48]
  TGI: > 25 µM
[49]
  TGI: > 25 µM
[50]
  TGI: > 25 µM
[51]
  TGI: > 25 µM
[52]
  TGI: > 25 µM
[53]
  TGI: > 25 µM
[54]
  TGI: > 25 µM
[55]
  TGI: > 25 µM

## COc1cc(O)c(C(=O)CC(C)=O)c(OC)c1
[1]
  TGI: > 100 µM
[3]
  TGI: > 100 µM
[4]
  TGI: > 100 µM
[5]
  TGI: > 100 µM
[6]
  TGI: > 100 µM
[7]
  TGI: > 100 µM
[8]
  TGI: > 100 µM
[56]
  TGI: > 100 µM
[9]
  TGI: > 100 µM
[10]
  TGI: > 100 µM
[11]
  TGI: > 100 µM
[12]
  TGI: > 100 µM
[14]
  TGI: > 100 µM
[15]
  TGI: > 100 µM
[16]
  TGI: > 100 µM
[18]
  TGI: > 100 µM
[19]
  TGI: > 100 µM
[20]
  TGI: > 100 µM
[21]
  TGI: > 100 µM
[22]
  TGI: > 100 µM
[23]
  TGI: > 100 µM
[24]
  TGI: > 100 µM
[25]
  TGI: > 100 µM
[26]
  TGI: > 100 µM
[27]
  TGI: > 100 µM
[28]
  TGI: > 100 µM
[29]
  TGI: > 100 µM
[30]
  TGI: > 100 µM
[31]
  TGI: > 100 µM
[32]
  TGI: > 100 µM
[33]
  TGI: > 100 µM
[34]
  TGI: > 100 µM
[35]
  TGI: > 100 µM
[36]
  TGI: > 100 µM
[37]
  TGI: > 100 µM
[38]
  TGI: > 100 µM
[39]
  TGI: > 100 µM
[40]
  TGI: > 100 µM
[41]
  TGI: > 100 µM
[42]
  TGI: > 100 µM
[43]
  TGI: > 100 µM
[44]
  TGI: > 100 µM
[45]
  TGI: > 100 µM
[46]
  TGI: > 100 µM
[47]
  TGI: > 100 µM
[58]
  TGI: > 100 µM
[49]
  TGI: > 100 µM
[50]
  TGI: > 100 µM
[51]
  TGI: > 100 µM
[52]
  TGI: > 100 µM
[53]
  TGI: > 100 µM
[54]
  TGI: > 100 µM
[55]
  TGI: > 100 µM

## N=c1n(CC(=O)NC23CC4CC(CC(C4)C2)C3)c2ccccc2n1CC(=O)NC12CC3CC(CC(C3)C1)C2
[1]
  TGI: 3.19 µM
[2]
  TGI: 3.15 µM
[4]
  TGI: 3.94 µM
[5]
  TGI: 24.3 µM
[6]
  TGI: 6.23 µM
[7]
  TGI: 3.49 µM
[8]
  TGI: 3.5 µM
[56]
  TGI: 3.67 µM
[9]
  TGI: 3.35 µM
[10]
  TGI: 5.03 µM
[11]
  TGI: 2.65 µM
[12]
  TGI: 3.46 µM
[13]
  TGI: 3.31 µM
[14]
  TGI: 4.82 µM
[15]
  TGI: 4.5 µM
[16]
  TGI: 3.48 µM
[17]
  TGI: 3.06 µM
[18]
  TGI: 3.21 µM
[19]
  TGI: 3.1 µM
[20]
  TGI: 5.54 µM
[21]
  TGI: 2.98 µM
[22]
  TGI: 3.2 µM
[24]
  TGI: 3.46 µM
[25]
  TGI: 3.38 µM
[57]
  TGI: 3.09 µM
[26]
  TGI: 3.04 µM
[27]
  TGI: 6 µM
[29]
  TGI: 3.13 µM
[30]
  TGI: 3.17 µM
[31]
  TGI: 3.3 µM
[32]
  TGI: 3.32 µM
[33]
  TGI: 3.38 µM
[34]
  TGI: 3.08 µM
[35]
  TGI: 3.13 µM
[36]
  TGI: 6.07 µM
[37]
  TGI: 3.17 µM
[38]
  TGI: 3.72 µM
[39]
  TGI: 3.52 µM
[40]
  TGI: 3.36 µM
[41]
  TGI: 30.9 µM
[42]
  TGI: 3.17 µM
[43]
  TGI: 3.24 µM
[44]
  TGI: 29.1 µM
[45]
  TGI: 3.45 µM
[46]
  TGI: 3.02 µM
[47]
  TGI: 4.12 µM
[58]
  TGI: 6.38 µM
[48]
  TGI: 4.51 µM
[49]
  TGI: 3 µM
[50]
  TGI: 3.08 µM
[51]
  TGI: 3.02 µM
[52]
  TGI: 3.17 µM
[53]
  TGI: 3.45 µM
[54]
  TGI: 26 µM
[55]
  TGI: 2.93 µM
